{"source": "paper PMC2742306", "about": "(Molecular cell, 2009)", "key": {"D320A DegS [1]": {"target": "T1, D320A DegS (Escherichia coli, UniProt P0AEE3, D320A)", "T1 sequence (P0AEE3 27-355 D320A)": "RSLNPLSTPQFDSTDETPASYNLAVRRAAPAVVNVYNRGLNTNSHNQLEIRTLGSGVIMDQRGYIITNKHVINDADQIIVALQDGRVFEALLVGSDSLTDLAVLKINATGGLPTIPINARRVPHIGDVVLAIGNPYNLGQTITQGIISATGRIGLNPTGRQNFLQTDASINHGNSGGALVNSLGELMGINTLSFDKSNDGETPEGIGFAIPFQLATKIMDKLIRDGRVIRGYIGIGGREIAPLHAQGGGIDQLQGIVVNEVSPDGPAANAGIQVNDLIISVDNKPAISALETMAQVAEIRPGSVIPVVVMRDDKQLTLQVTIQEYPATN", "assay": "OMP-peptide activation of RseA cleavage by D320A DegS", "assay_type": "biochemical, E. coli"}, "K243D mutant of DegS [2]": {"target": "T2, K243D mutant of DegS (Escherichia coli, UniProt P0AEE3, K243D)", "T2 sequence (P0AEE3 27-355 K243D)": "as the sequence (P0AEE3 27-355 D320A) above, with K217D, A294D counted along it", "assay_type": "biochemical, E. coli"}, "D320A DegS [3]": {"target": "T1, D320A DegS", "assay_type": "biochemical, E. coli"}, "[4]": {"target": "K243D/D320A mutant of DegS (Escherichia coli, UniProt P0AEE3, D320A/K243D)", "sequence (P0AEE3 27-355 K243D/D320A)": "as the sequence (P0AEE3 27-355 D320A) above, with K217D counted along it", "assay_type": "biochemical, E. coli"}, "[5]": {"target": "K243D/M319A double mutant of DegS (Escherichia coli, UniProt P0AEE3, K243D/M319A)", "assay_type": "biochemical, E. coli", "settings": "saturating peptide"}, "wild-type DegS [6]": {"target": "T3, wild-type DegS (Escherichia coli, UniProt P0AEE3)", "T3 sequence (P0AEE3 27-355)": "as the sequence (P0AEE3 27-355 D320A) above, with A294D counted along it", "assay_type": "biochemical, E. coli", "settings": "wild-type DegS 0.9 μM trimer; 20 μM rhodamine-FP; saturating peptide"}, "wild-type DegS [7]": {"target": "T3, wild-type DegS", "assay_type": "biochemical, E. coli"}, "K243D mutant of DegS [8]": {"target": "T2, K243D mutant of DegS", "assay": "Global fit to MWC allosteric model, K243D DegS", "assay_type": "biochemical, E. coli", "settings": "K243D, MWC global fit"}, "D320A DegS [9]": {"target": "T1, D320A DegS", "assay": "Global fit to MWC allosteric model, D320A DegS", "assay_type": "biochemical, E. coli", "settings": "D320A, MWC global fit"}, "wild-type DegS [10]": {"target": "T3, wild-type DegS", "settings": "200 μM RseA, ref Sohn et al. (2007); cited from earlier work"}, "wild-type DegS [11]": {"target": "T3, wild-type DegS", "settings": "saturating peptide, ref Sohn et al. (2007); cited from earlier work"}, "DegS and its mutants": {"test_system": "DegS and its mutants", "assay": "Global fit to MWC allosteric model, RseA substrate binding", "assay_type": "biochemical, E. coli"}, "[12]": {"target": "T4, DegS M319A (residues 27–355, N-terminal His6 tag) (E. coli, UniProt P0AEE3 27-355, M319A)", "T4 sequence (looked up)": "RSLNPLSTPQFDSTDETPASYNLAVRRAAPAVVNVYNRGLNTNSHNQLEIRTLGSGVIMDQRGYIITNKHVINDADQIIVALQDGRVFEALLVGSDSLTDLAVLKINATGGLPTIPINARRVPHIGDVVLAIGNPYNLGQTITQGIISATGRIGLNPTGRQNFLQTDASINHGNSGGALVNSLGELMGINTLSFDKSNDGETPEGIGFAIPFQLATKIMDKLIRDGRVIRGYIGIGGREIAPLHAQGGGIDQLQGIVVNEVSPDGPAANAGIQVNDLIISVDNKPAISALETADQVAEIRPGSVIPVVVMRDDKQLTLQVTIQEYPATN", "assay": "fluorescence polarisation"}, "[13]": {"target": "T5, DegS K243D/M319A double mutant (residues 27–355, N-terminal His6 tag) (E. coli, UniProt P0AEE3 27-355, K243D | M319A)", "T5 sequence (looked up)": "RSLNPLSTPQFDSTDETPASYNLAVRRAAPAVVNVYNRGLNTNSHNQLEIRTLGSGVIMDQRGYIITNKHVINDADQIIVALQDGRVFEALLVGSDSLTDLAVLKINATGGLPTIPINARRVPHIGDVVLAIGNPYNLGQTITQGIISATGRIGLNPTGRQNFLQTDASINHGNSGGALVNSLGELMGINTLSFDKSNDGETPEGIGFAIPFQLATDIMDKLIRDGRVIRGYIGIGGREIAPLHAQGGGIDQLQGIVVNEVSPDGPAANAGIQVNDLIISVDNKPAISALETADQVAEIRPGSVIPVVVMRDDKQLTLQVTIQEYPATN", "assay": "fluorescence polarisation"}, "[14]": {"settings": "enzyme parameter, peptide-independent"}, "[15]": {"settings": "peptide preference for relaxed state"}, "[16]": {"settings": "same value for all enzymes and peptides"}}, "note": "No end group written: not given here. βAla = NCCC(=O)O", "data": [{"molecule": "DNRDGNVYYF [DNRDGNVYYF]", "values": [{"measurement": "EC50", "setting": "D320A DegS [1]", "value": "200 ± 100", "unit": "nM"}, {"measurement": "Vmax (RseA cleavage)", "setting": "K243D mutant of DegS [2]; K243D 0.3 μM trimer, saturating peptide (DNRDGNVYYF 30 μM), 23 °C, pH 8.3", "value": "1.8 ± 0.2", "unit": "s^−1enz^−1"}, {"measurement": "Hill Constant (RseA substrate)", "setting": "K243D mutant of DegS [2]; K243D, saturating peptide", "value": "1.3 ± 0.1"}, {"measurement": "Vmax (RseA cleavage)", "setting": "D320A DegS [3]; D320A 0.3 μM trimer, saturating peptide (DNRDGNVYYF 30 μM), 23 °C, pH 8.3", "value": "2.5 ± 0.3", "unit": "s^−1enz^−1"}, {"measurement": "Hill Constant (RseA substrate)", "setting": "D320A DegS [3]; D320A, saturating peptide", "value": "1.1 ± 0.2"}, {"measurement": "Vmax (RseA cleavage)", "setting": "[4]; K243D/D320A 0.3 μM trimer, DNRDGNVYYF 30 μM, 23 °C, pH 8.3", "value": "2.0 ± 0.3", "unit": "s^−1enz^−1"}, {"measurement": "Hill Constant (RseA substrate)", "setting": "[4]; K243D/D320A, saturating OMP peptide", "value": "1.1 ± 0.1"}, {"measurement": "Hill Constant (RseA substrate)", "setting": "[5]", "value": "1.2 ± 0.1"}, {"measurement": "Vmax (RseA cleavage)", "setting": "[5]; 23 °C, pH 8.3", "value": "1.4 ± 0.1", "unit": "s^−1enz^−1"}, {"measurement": "rate of rhodamine-FP modification in presence of peptide (order)", "setting": "wild-type DegS [6]", "value": "slower"}, {"measurement": "L0, equilibrium constant T/R of unliganded enzyme", "setting": "wild-type DegS [7]; MWC global fit, enzyme parameter, peptide-independent", "value": 15000}, {"measurement": "KTP/KRP", "setting": "wild-type DegS [7]; MWC global fit, peptide preference for relaxed state", "value": 6.8}, {"measurement": "kr, rate constant for cleavage of RseA by substrate-bound R-state subunits", "setting": "wild-type DegS [7]; MWC global fit, same value for all enzymes and peptides", "value": 3.3, "unit": "s⁻¹"}, {"measurement": "DegS molecules in active conformation", "setting": "wild-type DegS [7]; saturating peptide and saturating RseA substrate, MWC model", "value": 45, "unit": "%"}, {"measurement": "KRS, dissociation constant of RseA substrate for R-state subunit", "setting": "K243D mutant of DegS [8]; RseA, not peptide, binding", "value": 150, "unit": "µM"}, {"measurement": "KTS, dissociation constant of RseA substrate for T-state subunit", "setting": "K243D mutant of DegS [8]; RseA, not peptide, binding", "value": 505, "unit": "µM"}, {"measurement": "L0, equilibrium constant T/R of unliganded enzyme", "setting": "K243D mutant of DegS [8]; [14]", "value": 180}, {"measurement": "KTP/KRP", "setting": "K243D mutant of DegS [8]; [15]", "value": 2.0}, {"measurement": "kr, rate constant for cleavage of RseA by substrate-bound R-state subunits", "setting": "K243D mutant of DegS [8]; [16]", "value": 3.3, "unit": "s⁻¹"}, {"measurement": "KRS, dissociation constant of RseA substrate for R-state subunit", "setting": "D320A DegS [9]; RseA, not peptide, binding", "value": 150, "unit": "µM"}, {"measurement": "KTS, dissociation constant of RseA substrate for T-state subunit", "setting": "D320A DegS [9]; RseA, not peptide, binding", "value": 505, "unit": "µM"}, {"measurement": "L0, equilibrium constant T/R of unliganded enzyme", "setting": "D320A DegS [9]; [14]", "value": 350}, {"measurement": "KTP/KRP", "setting": "D320A DegS [9]; [15]", "value": 3.3}, {"measurement": "kr, rate constant for cleavage of RseA by substrate-bound R-state subunits", "setting": "D320A DegS [9]; [16]", "value": 3.3, "unit": "s⁻¹"}, {"measurement": "Hill Constant (peptide activation)", "setting": "wild-type DegS [10]", "value": "1.8 ± 0.2"}, {"measurement": "Hill Constant (RseA substrate)", "setting": "wild-type DegS [11]", "value": "1.6 ± 0.2"}, {"measurement": "Vmax (RseA cleavage)", "setting": "wild-type DegS [11]", "value": "1.1 ± 0.2", "unit": "s^−1enz^−1"}]}, {"molecule": "RseA: 35S-labeled variant of the periplasmic domain of E. coli RseA (residues 121–216) with a C-terminal His6 tag (protein, 35S-labeled; left off: His6, C-terminal, state not stated) YNGQSETSQQPETPVFNTLPMMGKASPVSLGVPSEATANNGQQQQVQEQRRRINAMLQDYELQRRLHSEQLQFEQAQTQQAAVQVPGIQTLGTQSQ", "values": [{"measurement": "preference for relaxed state in substrate-saturated trimer", "setting": "DegS and its mutants", "value": "approximately 40 fold"}]}, {"molecule": "{fluoresceine-βAla}-KKDNRDGNYYF", "note": "[OMP peptide fluoresceine-β-alanine-KKDNRDGNYYF]", "values": [{"measurement": "Kd", "setting": "[12]", "value": 140, "unit": "nM"}, {"measurement": "Kd", "setting": "[13]", "value": 180, "unit": "nM"}]}]}
